Assay results reported in PMC10799058, “Exploring the mechanism and phytochemicals in Psoraleae Fructus-induced hepatotoxicity based on RNA-seq, in vitro screening and molecular docking” (Scientific Reports, 2024).
≈ marks a conversion by molar mass, not a printed value. Where two headings read alike, the source gives them in different places.

Columns and labels:
AML-12 cells [1] = experiment: CCK-8 assay, toxic effects on AML-12 cells; type: cell-based; conditions: for IC50: CCK-8, treatment 24 h, read-out: IC50 toward AML12 cells
Protocol: To uncover the potential hepatotoxic components, CCK-8 assay was performed toevaluate the toxic effects of 9 chemicals in PF on AML-12 cells. With the treatment […]
AML-12 cells were seeded into 96-well plates for 24 h until they visibly reached confluence. Then, AML-12 cells were treated with different concentrations of the nine chemical compounds in PF for 24 h. The multiple concentrations of each compound […]
wells were set up for each group. After treatment, AML-12 cells were washed with PBS buffer gently and incubated with DMEM/F12 medium containing 10% CCK-8 solution for 0.5-2 h. OD value was measured with live cell imaging system (Cytation 5,BioTek, USA) at 450 nm.
Cell viability (%) = [(OD value of the experimental group − OD value of the blank group)/ (OD value of the control group − OD value of the blank group)] ×

AML-12 cells [2] = experiment: High-content screening of mitotoxic endpoints (MMP by TMRM, mitochondrial superoxide by MitoSOX Red); conditions: 15 μmol/L, 24 h; for mitochondrial toxicity, overall ranking among 9 phytochemicals: MMP and mitochondrial superoxide taken together; for fluorescence intensity of Mitosox red (mitochondrial superoxide): versus control
[3] = Solubility in DMEM/F12 culture medium; conditions: aqueous buffer, kinetic from dmso stock

Corylin gave an IC50 (AML-12 cells [1]) of 34.4 µM.

For bavachinin, the IC50 (AML-12 cells [1]) was 60.2 µM.

With `C=C[C@@](C)(/C=C/c1ccc(O)cc1)CCC=C(C)C` [bakuchiol] the IC50 (AML-12 cells [1]; Mus musculus, AML12) was 35 µM, the “mitochondrial toxicity, overall ranking among 9 phytochemicals” value (shortened to “mitochondrial toxicity”) (AML-12 cells [2]) was “most potent mitochondrial toxicities” and the “fluorescence intensity of Mitosox red (mitochondrial superoxide)” value (“fluorescence intensity of Mitosox red” below) (AML-12 cells [2]) was “prominently promoted”.

In the case of `CC(C)=CCc1cc2c(cc1O)oc(=O)c1c3ccc(O)cc3oc21` [psoralidin, Psoralidin], the IC50 (AML-12 cells [1]) is reported as 17.7 µM and the “fluorescence intensity of Mitosox red” value (AML-12 cells [2]) is reported as “prominently promoted”.

With `CC(C)=CCc1cc2c(cc1O)O[C@H](c1ccc(O)cc1)CC2=O` [bavachin, Bavachin] the IC50 (AML-12 cells [1]; Mus musculus, AML12) was 33.2 µM, the “mitochondrial toxicity” value (AML-12 cells [2]) was “most potent mitochondrial toxicities” and the “fluorescence intensity of Mitosox red” value (AML-12 cells [2]) was “prominently promoted”.

In the case of `O=c1ccc2ccc3occc3c2o1` [isopsoralen], the solubility [3] is reported as 800 µM (≈ 149 µg/mL) and the “toxicity to AML-12 cells” value (AML-12 cells [1]) is reported as “no obvious toxicity”.

For `CC(C)=CCc1c(O)ccc(C(=O)/C=C/c2ccc(O)cc2)c1O` [isobavachalcone], the IC50 (AML-12 cells [1]; Mus musculus, AML12) was 28.9 µM, the “mitochondrial toxicity” value (AML-12 cells [2]) was “most potent mitochondrial toxicities” and the “fluorescence intensity of Mitosox red” value (AML-12 cells [2]) was “prominently promoted”.
